A short description of data set [1]: Chemical stability in HBSS buffer (pH 7.4) / simulated gastric fluid. As to conditions: for chemical stability: chemical hydrolysis / HBSS buffer; for Percentage remaining: HBSS, 10 μM, 37° C. The format is physicochemical. The method, then: The chemical stability of prodrugs was evaluated using simulated gastric fluid (pH 1.2) and Hanks' Balanced Salt Solution (HBSS) buffer (pH 7.4). Briefly, prodrugs were spiked (10 μM) in respective solutions and incubated at 37° C. for 1 h. At predetermined time points (0, 30 and 60 min), aliquots of 100 μL were removed and diluted with 100 μL of water. Prodrug disappearance was monitored using the developed liquid chromatography and tandem mass spectrometry (LC/MS/MS) method described below.
(§1) For LC/MS/MS, prodrugs were separated with Thermo Scientific Accela UPLC system coupled to Accela open autosampler on an Agilent C18 (100×2.1 mm id) UPLC column. The autosampler was temperature controlled and operating at 10° C. The mobile phase used for the chromatographic separation was composed of acetonitrile/water containing 0.1% formic acid and was run at a flow rate of 0.5 mL/minute for 4.5 minutes using gradient elution. The column effluent was monitored using TSQ Vantage triple-quadrupole mass spectrometric detector, equipped with an electrospray probe set in the positive ionization mode. Samples were introduced into the ionization source through a heated nebulized probe (350° C.).
(§2) For quantification of compound remaining, disappearance of prodrugs was measured from ratio of peak areas of analyte to IS. Percentage remaining was calculated in the following manner: […]

A short description of data set [2]: In vivo pharmacokinetics in mice, peroral, bioanalysis method 1 (total prodrug exposure). As to conditions: mice, oral dosing. The protocol:
Blood was obtained via cardiac puncture and tissue dissected at 0 min, 15 min, 30 min, 1 h, 2 h, and 4 h post dose (n=3 per time point). Single time point studies were conducted at 30 min (N=3) following dosing. Plasma was harvested from blood by centrifugation. Mean concentration-time data was used for pharmacokinetic (PK) analysis. Non-compartmental-analysis module in WinNonlin® (version 5.3) was used to assess pharmacokinetic parameters. Peak plasma concentrations (Cmax) and time to Cmax (Tmax) were the observed values. Area under the curve (AUC) was calculated by log-linear (p.o.) trapezoidal rule to the end of sample collection (AUClast) and extrapolated to infinity (AUC0-∞) by dividing the last quantifiable concentration by the terminal disposition rate constant (ke). Terminal half-life (t1/2) was estimated from first order kinetics: t1/2=0.693/ke.
Briefly, prior to extraction, frozen samples were thawed on ice. For plasma extraction, 50 μL of the calibration standards or samples were transferred into silanized microcentrifuge tubes. Sample preparation involved a single liquid extraction by addition of 300 μL of methanol as extraction solution with internal standard (i.e., 5 μM of 2-PMSA in methanol), followed by vortexing for 30 s and then centrifugation at 12000 g for 10 min. Supernatant was transferred (˜250 μL) and evaporated to dryness at 40° C. under a gentle stream of nitrogen. The residue was reconstituted with 100 μL of derivatizing agent, n-butanol with 3N HCl, and samples were vortexed. The samples were heated at ˜60 OC in a shaking water bath for 30 min. At the end of 30 min, the derivatized samples were allowed to cool at room temperature and dried again for removal of derivatizing reagent, under a gentle stream of nitrogen. The residue was reconstituted in 100 μL of 30% acetonitrile in water v/v. The samples were vortexed and centrifuged again. ˜80 μL supernatant was transferred to a 250 μL polypropylene vial sealed with a Teflon cap and a volume of 10 μL was injected onto the ultra-performance liquid chromatography (UPLC) instrument for quantitative analysis. Chromatographic analysis was performed using an Accela™ ultra high-performance system consisting of an analytical pump, and an autosampler coupled with TSQ Vantage mass spectrometer (Thermo Fisher Scientific Inc., Waltham Mass.). […] The mobile phase used was composed of 0.1% formic acid in acetonitrile and 0.1% formic acid in H2O with gradient elution, starting with 20% (organic) linearly increasing to 65% up to 2.5 min, maintaining at 65% (2.5-3.5 min) and reequilibrating to 30% by 5 min. The total run time for each analyte was 5.0 min.

Data set [3] can be described thus: In vitro metabolic stability screen in plasma and liver subcellular fractions (results in words). The format is in vitro ADME. As to conditions: 60 min incubation. The protocol: (§3) For metabolic stability, plasma (mouse, dog, monkey and human) and liver microsomes (mouse, dog, monkey and human) were used. For stability, prodrugs (10 μM) were spiked in each matrix and incubated in an orbital shaker at 37° C. At predetermined times (0, 30 and 60 min), 100 μL aliquots of the mixture in triplicate were removed and the reaction quenched by addition of three times the volume of ice cold acetonitrile spiked with the internal standard (losartan 5 μM). The samples were vortexed for 30 s and centrifuged 12000 g for 10 min. 50 μL supernatant diluted with 50 μL water was transferred to a 250 μL polypropylene vial sealed with a Teflon cap. Prodrug disappearance was monitored over time using a liquid chromatography and tandem mass spectrometry (LC/MS/MS) method as described below.
as §1
For quantification of compound remaining, disappearance of prodrugs was measured from ratio of peak areas of analyte to IS. Percentage remaining was calculated in the following manner:
In general, the prodrugs were screened by an in vitro metabolic stability screen, and if positive, followed by an in vivo single time point pharmacokinetic study, and in select cases, an in vivo full time course pharmacokinetic study (FIG. 3). In this Example, the four acidic functional groups in 2-PMPA were systematically capped. The carboxylic acids were first masked with simple alkyl esters (Compounds 1, 2, and 3). In vitro chemical and metabolic stability of the prodrugs then were conducted, following 60 min incubation in plasma stability screens for prodrugs.

Data set [4] in a line: Metabolic stability in mouse plasma. The format is in vitro ADME. As to conditions: 10 μM, 37° C. The protocol:
as §3, §1, §2

Data set [5] is described as follows: Metabolic stability in mouse liver microsomes. The class given is in vitro ADME. The note with it: 10 μM, 37° C. The method, then:
as §3, §1, §2

Data set [6] in a line: Metabolic stability in human plasma. The format is in vitro ADME. As to conditions: 10 μM, 37° C. The protocol: as §3, §1, §2
Data set [7] in a line: Metabolic stability in human liver microsomes. The format is in vitro ADME. As to conditions: 10 μM, 37° C. The method, then:
as §3, §1, §2
In general terms: Liver microsomes are vesicles of endoplasmic reticulum, rich in cytochrome P450 enzymes.

A short description of data set [8]: In vivo pharmacokinetics in mice, peroral, bioanalysis method 2 (2-PMPA release). The note with it: rodents and dogs. The method, then:
Blood was obtained via cardiac puncture and tissue dissected at 0 min, 15 min, 30 min, 1 h, 2 h, and 4 h post dose (n=3 per time point). Single time point studies were conducted at 30 min (N=3) following dosing. Plasma was harvested from blood by centrifugation. Mean concentration-time data was used for pharmacokinetic (PK) analysis. Non-compartmental-analysis module in WinNonlin® (version 5.3) was used to assess pharmacokinetic parameters. Peak plasma concentrations (Cmax) and time to Cmax (Tmax) were the observed values. Area under the curve (AUC) was calculated by log-linear (p.o.) trapezoidal rule to the end of sample collection (AUClast) and extrapolated to infinity (AUC0-∞) by dividing the last quantifiable concentration by the terminal disposition rate constant (ke). […] The tissues were stored in −20° C. for 1 h and then homogenized. The calibration curve for the tissues was developed using naïve mouse brains from untreated animals as a matrix. For sciatic nerve, the nerves were weighed and homogenized in 50 μL methanol and the calibration curve was developed using naïve sciatic nerves from untreated animals as a matrix. The samples were vortexed and centrifuged. […] Supernatant was dried under a gentle stream of nitrogen at 45° C. and the residue reconstituted with 75 μL of acetonitrile and vortexed. 25 μL of derivatizing agent N-tert-Butyldimethysilyl-N-methyltrifluoro-acetamide (MTBSTFA) was added to microcentrifuge tubes, vortexed, and heated at ˜60 OC for 40 min. At the end of 40 min, the derivatized samples ˜75 μL were transferred to a 250 μL polypropylene vials and were analyzed via LC/MS/MS. Chromatographic analysis was performed using an Accela™ ultra high-performance system consisting of an analytical pump, and an autosampler coupled with TSQ Vantage mass spectrometer (Thermo Fisher Scientific Inc., Waltham Mass.). […] The total run time for each analyte was 5.0 min. Chromatographic analysis will be performed on Accela UPLC.

The nature of data set [9]: Metabolic stability in mouse liver S9. The format is in vitro ADME. As to conditions: Mouse S9, 10 μM, 37° C.

The structures appear in SMILES notation. “Also recorded” adds a separate entry of the source.

As to `COC(=O)C(CCC(=O)O)CP(=O)(OCOC(=O)OC(C)C)OCOC(=O)OC(C)C` (stereo not shown) [Compound 7, 4-((Bis{[(isopropoxycarbonyl)oxy]methoxy}phosphoryl)methyl)-5-methoxy-5-oxopentanoic acid], in data set [1], the “chemical stability” value is recorded as “stable to chemical hydrolysis”. Also, the “permeability in vivo” value in data set [2] is recorded as “good compound penetrability; also recorded: good permeability”. Besides, the “in vitro metabolic stability” value in [3] is “unstable in mouse plasma and mouse liver microsomes”.
On to `CC(C)OC(=O)OC(C)OC(=O)C(CCC(=O)O)CP(=O)(OC(C)OC(=O)OC(C)C)OC(C)OC(=O)OC(C)C` (stereo not shown) [Compound 24], for which the “chemical stability” value in data set [1] is “sufficient chemical stability”. Besides, the Percentage remaining in data set [4] (0 min) turned out to be 100%; in data set [4] (30 min), 0%; in data set [4] (60 min) it was 0%; in data set [5] (0 min), 100%; in [5] (30 min), 1%; in data set [5] (60 min) it was 0%. The Percentage remaining in [6] (0 min) was 100%; in data set [6] (30 min), 106%; in data set [6] (60 min) it was 75%; in data set [7] (0 min), 100%; in data set [7] (30 min), 27%; in data set [7] (60 min), 8%. The “oral bioavailability” value in [8] is “excellent oral bioavailability”. Also, in [3], the “in vitro metabolic stability” value was “instability in plasma and liver subcellular fractions”.
On to `CCOC(=O)CCC(CP(=O)(OCOC(=O)C(C)(C)C)OCOC(=O)C(C)(C)C)C(=O)OCC` (stereo not shown) [Compound 18, Diethyl 2-({bis[(pivaloyloxy)methoxy]phosphoryl}methyl)pentanedioate], for which the Percentage remaining in data set [4] (0 min) stood at 0%; in data set [4] (30 min) it was 0%; in data set [4] (60 min) it was 0%; in data set [9] (0 min) it was 100%; in data set [9] (30 min), 1%; in [9] (60 min), 0%. The Percentage remaining in data set [5] (0 min) came out at 100%; in data set [5] (30 min) it was 2%; in [5] (60 min) it was 0%; in data set [6] (0 min), 100%; in data set [6] (30 min) it was 50%; in data set [6] (60 min), 18%. Moreover, the Percentage remaining in data set [7] (0 min) stood at 100%; in [7] (30 min) it was 1%; in [7] (60 min) it was 0%. The “in vitro metabolic stability” value in data set [3] was “too stable”.
Take `CC(C)(C)C(=O)OCOC(=O)C(CCC(=O)O)CP(=O)(OCOC(=O)C(C)(C)C)OCOC(=O)C(C)(C)C` (stereo not shown) [Compound 23]: the “chemical stability” value in [1] is “sufficient chemical stability”. Besides, the “permeability in vivo” value in data set [2] was “highest permeability”. In addition, in data set [3], the “in vitro metabolic stability” value is “instability in plasma and liver subcellular fractions”.
For `CCOCCOCCOCCOCCOCCOCCOP(=O)(CC(CCC(=O)OC)C(=O)OC)OCCOCCOCCOCCOCCOCCOCC` (stereo not shown) [Compound 13, Dimethyl 2-((bis((3,6,9,12,15,18-hexaoxaicosyl)oxy)phosphoryl)methyl)pentanedioate], the Percentage remaining is reported as 100% in data set [1] (0 min); 99% in [1] (30 min); 101% in data set [1] (60 min); 100% in data set [4] (0 min); 2% in data set [4] (30 min); 1% in data set [4] (60 min). Moreover, the Percentage remaining in data set [9] (0 min) is reported as 100%; in data set [9] (30 min), 106%; in data set [9] (60 min), 100%; in [5] (0 min), 100%; in data set [5] (30 min), 99%; in data set [5] (60 min), 100%. Moreover, in data set [3], the “in vitro metabolic stability” value is recorded as “too stable in some of the samples”.
`COC(=O)CCC(CP(=O)(OCOC(=O)OC(C)C)OCOC(=O)OC(C)C)C(=O)OC` (stereo not shown) [Compound 6, Dimethyl 2-((bis{[(isopropoxycarbonyl)oxy]methoxy}phosphoryl)methyl)-pentanedioate]: the Percentage remaining is given as 100% in data set [1] (0 min); 101% in [1] (30 min); 93% in data set [1] (60 min); 100% in [4] (0 min); 2% in data set [4] (30 min); 0.4% in [4] (60 min). In addition, the Percentage remaining in data set [9] (0 min) is 100%; in [9] (30 min), 1%; in data set [9] (60 min) it was 0.1%; in data set [5] (0 min), 100%; in data set [5] (30 min) it was 2%; in data set [5] (60 min), 0.1%. The results for the “chemical stability” value in data set [1] and in data set [1] (listed as JHU 2110) were “stable to chemical hydrolysis” and “stable in HBSS buffer”, respectively. Moreover, the results for the “permeability in vivo” value in [2] and in [2] (listed as JHU 2110) were “good compound penetrability; also recorded: good permeability” and “most permeable”, respectively. Moreover, the “in vitro metabolic stability” value in [3] is “unstable in mouse plasma and mouse liver microsomes”.
